Experimental data reported in ChEMBL document CHEMBL1201862, “PubChem BioAssay data set” (2004).
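Each compound was tested at five concentrations against cells in 96-well plates for 48 hours. At the GI50, growth is halved.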 Calls of active or inactive are those of the source. Rule as the data show it: active = GI50 up to about 1.1 µM and inactive = higher.

How the values were obtained:
Test in all cases: NCI tumour cell line growth inhibition, 48 h
786-0 = system: 786-0
A549 = system: A549
ACHN = system: ACHN
CAKI-1 = system: CAKI-1
CCRF-CEM = system: CCRF-CEM
COLO 205 = system: COLO 205
DLD-1 = system: DLD-1
DMS-114 = system: DMS-114
DMS-273 = system: DMS-273
EKVX = system: EKVX
HCC 2998 = system: HCC 2998
HCT-116 = system: HCT-116
HCT-15 = system: HCT-15
HL-60 = system: HL-60
HOP-18 = system: HOP-18
HOP-62 = system: HOP-62
HOP-92 = system: HOP-92
HT-29 = system: HT-29
IGROV-1 = system: IGROV-1
K562 = system: K562
KM-20L2 = system: KM-20L2
KM12 = system: KM12
LXFL 529 = system: LXFL 529
M14 = system: M14
M19-MEL = system: M19-MEL
MOLT-4 = system: MOLT-4
Malme-3M = system: Malme-3M
NCI-H226 = system: NCI-H226
NCI-H23 = system: NCI-H23
NCI-H460 = system: NCI-H460
NCI-H522 = system: NCI-H522
OVCAR-3 = system: OVCAR-3
OVCAR-4 = system: OVCAR-4
OVCAR-5 = system: OVCAR-5
OVCAR-8 = system: OVCAR-8
RPMI-8226 = system: RPMI-8226
RXF 393 = system: RXF 393
RXF 631 = system: RXF 631
SF-268 = system: SF-268
SF-295 = system: SF-295
SF-539 = system: SF-539
SK-MEL-28 = system: SK-MEL-28
SK-MEL-2 = system: SK-MEL-2
SK-MEL-5 = system: SK-MEL-5
SK-OV-3 = system: SK-OV-3
SN12C = system: SN12C
SNB-19 = system: SNB-19
SNB-75 = system: SNB-75
SNB-78 = system: SNB-78
SR = system: SR
SW-620 = system: SW-620
U-251 = system: U-251
UACC-257 = system: UACC-257
UACC-62 = system: UACC-62
UO-31 = system: UO-31
A498 = system: A498
LOX IMVI = system: LOX IMVI
TK-10 = system: TK-10
XF498 = system: XF498

In the case of N=C1N(c2ccccc2)C(=O)C23CCCC2C13N1CCOCC1 (stereo not drawn), the GI50 (786-0) is reported as > 100 µM (inactive), the GI50 (A549) is reported as > 100 µM (inactive) and the GI50 (ACHN) is reported as > 100 µM (inactive). For the same molecule, the GI50 (CAKI-1) was > 100 µM (inactive), the GI50 (CCRF-CEM) was > 100 µM (inactive) and the GI50 (COLO 205) was > 100 µM (inactive). The GI50 (DLD-1) was > 100 µM (inactive), the GI50 (DMS-114) was > 100 µM (inactive) and the GI50 (DMS-273) was > 100 µM (inactive). The GI50 (EKVX) was > 100 µM (inactive), the GI50 (HCC 2998) was > 100 µM (inactive) and the GI50 (HCT-116) was > 100 µM (inactive). The GI50 (HCT-15) was > 100 µM, the GI50 (HL-60) was > 100 µM (inactive) and the GI50 (HOP-18) was > 100 µM (inactive). The GI50 (HOP-62) was > 100 µM (inactive), the GI50 (HOP-92) was > 100 µM (inactive) and the GI50 (HT-29) was > 100 µM (inactive). For the same molecule, the GI50 (IGROV-1) was > 100 µM (inactive), the GI50 (K562) was > 100 µM (inactive) and the GI50 (KM-20L2) was > 100 µM (inactive). The GI50 (KM12) was > 100 µM (inactive), the GI50 (LXFL 529) was > 100 µM (inactive) and the GI50 (M14) was > 100 µM (inactive). For the same molecule, the GI50 (M19-MEL) was > 100 µM (inactive), the GI50 (MOLT-4) was > 100 µM (inactive) and the GI50 (Malme-3M) was > 100 µM (inactive). For the same molecule, the GI50 (NCI-H226) was > 100 µM (inactive), the GI50 (NCI-H23) was > 100 µM (inactive) and the GI50 (NCI-H460) was > 100 µM (inactive). For the same molecule, the GI50 (NCI-H522) was > 100 µM (inactive), the GI50 (OVCAR-3) was > 100 µM (inactive) and the GI50 (OVCAR-4) was > 100 µM (inactive). For the same molecule, the GI50 (OVCAR-5) was > 100 µM (inactive), the GI50 (OVCAR-8) was > 100 µM (inactive) and the GI50 (RPMI-8226) was > 100 µM (inactive). The GI50 (RXF 393) was > 100 µM (inactive), the GI50 (RXF 631) was > 100 µM (inactive) and the GI50 (SF-268) was > 100 µM (inactive). The GI50 (SF-295) was > 100 µM (inactive), the GI50 (SF-539) was > 100 µM (inactive) and the GI50 (SK-MEL-28) was > 100 µM (inactive). For the same molecule, the GI50 (SK-MEL-2) was > 100 µM (inactive), the GI50 (SK-MEL-5) was > 100 µM (inactive) and the GI50 (SK-OV-3) was > 100 µM (inactive). The GI50 (SN12C) was > 100 µM (inactive), the GI50 (SNB-19) was > 100 µM (inactive) and the GI50 (SNB-75) was > 100 µM (inactive). For the same molecule, the GI50 (SNB-78) was > 100 µM (inactive), the GI50 (SR) was > 100 µM (inactive) and the GI50 (SW-620) was > 100 µM (inactive). For the same molecule, the GI50 (U-251) was > 100 µM (inactive), the GI50 (UACC-257) was > 100 µM (inactive) and the GI50 (UACC-62) was > 100 µM (inactive). The GI50 (UO-31) was > 100 µM (inactive).
CS(=O)(=O)OC1CCC2(C#N)CCC1C2=O (stereo not drawn) was tested, and the GI50 (786-0) was 79.6 µM (inactive), the GI50 (A498) was > 100 µM (inactive) and the GI50 (A549) was > 100 µM (inactive). The GI50 (ACHN) was > 100 µM (inactive), the GI50 (CAKI-1) was > 100 µM (inactive) and the GI50 (CCRF-CEM) was > 100 µM (inactive). For the same molecule, the GI50 (COLO 205) was 70.8 µM (inactive), the GI50 (DLD-1) was > 100 µM (inactive) and the GI50 (DMS-273) was 22.5 µM (inactive). For the same molecule, the GI50 (EKVX) was > 100 µM (inactive), the GI50 (HCC 2998) was 46.1 µM (inactive) and the GI50 (HCT-116) was > 100 µM (inactive). The GI50 (HCT-15) was 12.1 µM, the GI50 (HL-60) was > 100 µM (inactive) and the GI50 (HOP-18) was > 100 µM (inactive). For the same molecule, the GI50 (HOP-62) was > 100 µM (inactive), the GI50 (HT-29) was > 100 µM (inactive) and the GI50 (IGROV-1) was > 100 µM (inactive). The GI50 (K562) was > 100 µM (inactive), the GI50 (KM-20L2) was 54.5 µM (inactive) and the GI50 (KM12) was > 100 µM (inactive). For the same molecule, the GI50 (LOX IMVI) was > 100 µM (inactive), the GI50 (LXFL 529) was > 100 µM (inactive) and the GI50 (M14) was 71.3 µM (inactive). The GI50 (M19-MEL) was > 100 µM (inactive), the GI50 (MOLT-4) was > 100 µM (inactive) and the GI50 (Malme-3M) was > 100 µM (inactive). The GI50 (NCI-H226) was > 100 µM (inactive), the GI50 (NCI-H23) was > 100 µM (inactive) and the GI50 (NCI-H460) was 95.3 µM (inactive). For the same molecule, the GI50 (NCI-H522) was 86.5 µM (inactive), the GI50 (OVCAR-3) was > 100 µM (inactive) and the GI50 (OVCAR-4) was > 100 µM (inactive). The GI50 (OVCAR-5) was > 100 µM (inactive), the GI50 (OVCAR-8) was > 100 µM (inactive) and the GI50 (RPMI-8226) was 21.9 µM (inactive). For the same molecule, the GI50 (RXF 393) was > 100 µM (inactive), the GI50 (RXF 631) was > 100 µM (inactive) and the GI50 (SF-268) was > 100 µM (inactive). For the same molecule, the GI50 (SF-295) was > 100 µM (inactive), the GI50 (SF-539) was > 100 µM (inactive) and the GI50 (SK-MEL-28) was > 100 µM (inactive). For the same molecule, the GI50 (SK-MEL-2) was > 100 µM (inactive), the GI50 (SK-MEL-5) was > 100 µM (inactive) and the GI50 (SK-OV-3) was > 100 µM (inactive). The GI50 (SN12C) was > 100 µM (inactive), the GI50 (SNB-19) was > 100 µM (inactive) and the GI50 (SNB-75) was > 100 µM (inactive). For the same molecule, the GI50 (SNB-78) was > 100 µM (inactive), the GI50 (SR) was 19.8 µM (inactive) and the GI50 (TK-10) was > 100 µM (inactive). The GI50 (U-251) was > 100 µM (inactive), the GI50 (UACC-257) was > 100 µM (inactive) and the GI50 (UACC-62) was > 100 µM (inactive). The GI50 (UO-31) was > 100 µM (inactive) and the GI50 (XF498) was > 100 µM (inactive).
CCc1ccccc1NC(=O)C(=O)C(C#N)c1c(Cl)cccc1Cl (stereo not drawn) was tested, and the GI50 (786-0) was > 100 µM (inactive), the GI50 (A549) was > 100 µM (inactive) and the GI50 (ACHN) was > 100 µM (inactive). The GI50 (CAKI-1) was > 100 µM (inactive), the GI50 (CCRF-CEM) was > 100 µM (inactive) and the GI50 (DLD-1) was > 100 µM (inactive). The GI50 (DMS-273) was > 100 µM (inactive), the GI50 (EKVX) was > 100 µM (inactive) and the GI50 (HCT-116) was > 100 µM (inactive). The GI50 (HCT-15) was > 100 µM, the GI50 (HL-60) was > 100 µM (inactive) and the GI50 (HOP-92) was > 100 µM (inactive). The GI50 (HT-29) was > 100 µM (inactive), the GI50 (IGROV-1) was > 100 µM (inactive) and the GI50 (K562) was > 100 µM (inactive). The GI50 (KM-20L2) was > 100 µM (inactive), the GI50 (KM12) was > 100 µM (inactive) and the GI50 (LOX IMVI) was > 100 µM (inactive). For the same molecule, the GI50 (LXFL 529) was > 100 µM (inactive), the GI50 (M14) was > 100 µM (inactive) and the GI50 (M19-MEL) was > 100 µM (inactive). For the same molecule, the GI50 (MOLT-4) was > 100 µM (inactive), the GI50 (Malme-3M) was > 100 µM (inactive) and the GI50 (NCI-H226) was > 100 µM (inactive). The GI50 (NCI-H23) was > 100 µM (inactive), the GI50 (NCI-H522) was > 100 µM (inactive) and the GI50 (OVCAR-3) was > 100 µM (inactive). For the same molecule, the GI50 (RPMI-8226) was > 100 µM (inactive), the GI50 (RXF 631) was > 100 µM (inactive) and the GI50 (SF-268) was > 100 µM (inactive). For the same molecule, the GI50 (SF-295) was > 100 µM (inactive), the GI50 (SF-539) was > 100 µM (inactive) and the GI50 (SK-MEL-28) was > 100 µM (inactive). For the same molecule, the GI50 (SK-MEL-2) was > 100 µM (inactive), the GI50 (SK-OV-3) was > 100 µM (inactive) and the GI50 (SN12C) was > 100 µM (inactive). The GI50 (SNB-19) was > 100 µM (inactive), the GI50 (SNB-75) was > 100 µM (inactive) and the GI50 (SNB-78) was > 100 µM (inactive). For the same molecule, the GI50 (SR) was > 100 µM (inactive), the GI50 (SW-620) was > 100 µM (inactive) and the GI50 (TK-10) was > 100 µM (inactive). For the same molecule, the GI50 (U-251) was > 100 µM (inactive), the GI50 (UACC-257) was > 100 µM (inactive) and the GI50 (UACC-62) was > 100 µM (inactive). The GI50 (UO-31) was > 100 µM (inactive) and the GI50 (XF498) was > 100 µM (inactive).
